Converted amounts (≈) assume the structure as drawn. The source made the active and inactive calls. No cut-off for these calls is given here.
Key:
[1] = tested on: Enterococcus faecalis; assay: Antibacterial activity against vancomycin- resistant Enterococcus faecalis by CLSI M100-S18 method; assay type: functional
[2] = tested on: Enterococcus faecium; assay: Antibacterial activity against vancomycin- resistant Enterococcus faecium by CLSI M100-S18 method; assay type: functional
[3] = tested on: Listeria monocytogenes; assay: Antibacterial activity against Listeria monocytogenes by CLSI M100-S18 method; assay type: functional
[4] = tested on: Staphylococcus aureus; assay: Antibacterial activity against ciprofloxacin-susceptible and methicillin-resistant Staphylococcus aureus by CLSI M100-S18 method; assay type: functional
[5] = tested on: Staphylococcus aureus; assay: Antibacterial activity against non-ciprofloxacin-susceptible and methicillin-susceptible Staphylococcus aureus by CLSI M100-S18 method; assay type: functional
[6] = tested on: Staphylococcus epidermidis; assay: Antibacterial activity against ciprofloxacin-susceptible and methicillin-resistant Staphylococcus epidermidis by CLSI M100-S18 method; assay type: functional
[7] = tested on: Staphylococcus lugdunensis; assay: Antibacterial activity against Staphylococcus lugdunensis by CLSI M100-S18 method; assay type: functional
[8] = tested on: Staphylococcus warneri; assay: Antibacterial activity against Staphylococcus warneri by CLSI M100-S18 method; assay type: functional
[9] = tested on: Streptococcus agalactiae; assay: Antibacterial activity against Streptococcus agalactiae by CLSI M100-S18 method; assay type: functional
[10] = tested on: Streptococcus sp.; assay: Antibacterial activity against Lancefield Streptococcus sp. group F by CLSI M100-S18 method; assay type: functional
[11] = Antibacterial activity against Lancefield Streptococcus sp. 'group G' by CLSI M100-S18 method; assay type: functional
[12] = tested on: Streptococcus pneumoniae; assay: Antibacterial activity against levofloxacin-susceptible Streptococcus pneumoniae by CLSI M100-S18 method; assay type: functional
[13] = tested on: Streptococcus pneumoniae; assay: Antibacterial activity against non-levofloxacin susceptible Streptococcus pneumoniae by CLSI M100-S18 method; assay type: functional
[14] = tested on: Streptococcus pyogenes; assay: Antibacterial activity against Streptococcus pyogenes by CLSI M100-S18 method; assay type: functional
[15] = tested on: Streptococcus anginosus; assay: Antibacterial activity against Streptococcus anginosus by CLSI M100-S18 method; assay type: functional
[16] = tested on: Streptococcus constellatus; assay: Antibacterial activity against Streptococcus constellatus by CLSI M100-S18 method; assay type: functional
[17] = tested on: Streptococcus intermedius; assay: Antibacterial activity against Streptococcus intermedius by CLSI M100-S18 method; assay type: functional
[18] = tested on: Streptococcus mitis; assay: Antibacterial activity against Streptococcus mitis by CLSI M100-S18 method; assay type: functional
[19] = tested on: Streptococcus salivarius; assay: Antibacterial activity against Streptococcus salivarius by CLSI M100-S18 method; assay type: functional
[20] = tested on: Acinetobacter calcoaceticus; assay: Antibacterial activity against Acinetobacter calcoaceticus by CLSI M7-A7 method; assay type: functional
[21] = tested on: Citrobacter freundii; assay: Antibacterial activity against Citrobacter freundii by CLSI M7-A7 method; assay type: functional
[22] = tested on: Citrobacter koseri; assay: Antibacterial activity against Citrobacter koseri by CLSI M7-A7 method; assay type: functional
[23] = tested on: Klebsiella aerogenes; assay: Antibacterial activity against Enterobacter aerogenes by CLSI M7-A7 method; assay type: functional
[24] = tested on: Haemophilus influenzae; assay: Antibacterial activity against ciprofloxacin-susceptible Haemophilus influenzae by CLSI M7-A7 method; assay type: functional
[25] = tested on: Haemophilus influenzae; assay: Antibacterial activity against non-ciprofloxacin-susceptible Haemophilus influenzae by CLSI M7-A7 method; assay type: functional
[26] = tested on: Klebsiella oxytoca; assay: Antibacterial activity against Klebsiella oxytoca by CLSI M7-A7 method; assay type: functional
[27] = tested on: Klebsiella pneumoniae; assay: Antibacterial activity against Klebsiella pneumoniae by CLSI M7-A7 method; assay type: functional
[28] = tested on: Legionella pneumophila; assay: Antibacterial activity against Legionella pneumophila by CLSI M7-A7 method; assay type: functional
[29] = tested on: Moraxella catarrhalis; assay: Antibacterial activity against Moraxella catarrhalis by CLSI M7-A7 method; assay type: functional
[30] = tested on: Proteus mirabilis; assay: Antibacterial activity against Proteus mirabilis by CLSI M7-A7 method; assay type: functional
[31] = tested on: Pseudomonas aeruginosa; assay: Antibacterial activity against ciprofloxacin-susceptible Pseudomonas aeruginosa by CLSI M7-A7 method; assay type: functional
[32] = tested on: Pseudomonas aeruginosa; assay: Antibacterial activity against non-ciprofloxacin-susceptible Pseudomonas aeruginosa by CLSI M7-A7 method; assay type: functional
[33] = tested on: Stenotrophomonas maltophilia; assay: Antibacterial activity against non-levofloxacin susceptible Stenotrophomonas maltophilia by CLSI M7-A7 method; assay type: functional
[34] = tested on: Staphylococcus epidermidis; assay: Antibacterial activity against ciprofloxacin-susceptible and methicillin-resistant Staphylococcus epidermidis assessed as percent susceptible isolates by CLSI M100-S18 method; assay type: functional
[35] = tested on: Staphylococcus haemolyticus; assay: Antibacterial activity against Staphylococcus haemolyticus assessed as percent susceptible isolates by CLSI M100-S18 method; assay type: functional
[36] = tested on: Staphylococcus hominis; assay: Antibacterial activity against Staphylococcus hominis assessed as percent susceptible isolates by CLSI M100-S18 method; assay type: functional
[37] = tested on: Staphylococcus saprophyticus; assay: Antibacterial activity against Staphylococcus saprophyticus assessed as percent susceptible isolates by CLSI M100-S18 method; assay type: functional
[38] = tested on: Streptococcus pneumoniae; assay: Antibacterial activity against non-levofloxacin susceptible Streptococcus pneumoniae assessed as percent susceptible isolates by CLSI M100-S18 method; assay type: functional
[39] = tested on: Citrobacter freundii; assay: Antibacterial activity against Citrobacter freundii assessed as percent susceptible isolates by CLSI M7-A7 method; assay type: functional
[40] = tested on: Klebsiella aerogenes; assay: Antibacterial activity against Enterobacter aerogenes assessed as percent susceptible isolates by CLSI M7-A7 method; assay type: functional
[41] = tested on: Enterobacter cloacae; assay: Antibacterial activity against Enterobacter cloacae assessed as percent susceptible isolates by CLSI M7-A7 method; assay type: functional
[42] = tested on: Haemophilus influenzae; assay: Antibacterial activity against ciprofloxacin-susceptible Haemophilus influenzae assessed as percent susceptible isolates by CLSI M7-A7 method; assay type: functional
[43] = tested on: Haemophilus influenzae; assay: Antibacterial activity against non-ciprofloxacin-susceptible Haemophilus influenzae assessed as percent susceptible isolates by CLSI M7-A7 method; assay type: functional
[44] = tested on: Proteus mirabilis; assay: Antibacterial activity against Proteus mirabilis assessed as percent susceptible isolates by CLSI M7-A7 method; assay type: functional
[45] = tested on: Stenotrophomonas maltophilia; assay: Antibacterial activity against levofloxacin-susceptible Stenotrophomonas maltophilia by CLSI M7-A7 method; assay type: functional
[46] = tested on: Staphylococcus epidermidis
[47] = tested on: Staphylococcus epidermidis; remark: listed apart in the source

Work on `N[C@@H]1CCCCN(c2c(F)cc3c(=O)c(C(=O)O)cn(C4CC4)c3c2Cl)C1` [BESIFLOXACIN] yielded an MIC50 [1] of 0.12 µg/mL (≈ 0.305 µM), an MIC90 [1] of 2 µg/mL (≈ 5.08 µM) and an MIC50 [2] of 2 µg/mL (≈ 5.08 µM). It also gave an MIC90 [2] of 8 µg/mL (≈ 20.3 µM), an MIC50 [3] of 0.12 µg/mL (≈ 0.305 µM) and an MIC90 [3] of 0.12 µg/mL (≈ 0.305 µM). For the same compound, the MIC [4] was 0.015 µg/mL (≈ 0.0381 µM), the MIC50 [4] was 0.015 µg/mL (≈ 0.0381 µM) and the MIC90 [4] was 0.12 µg/mL (≈ 0.305 µM). It also gave an MIC50 [5] of 0.5 µg/mL (≈ 1.27 µM), an MIC90 [5] of 4 µg/mL (≈ 10.2 µM) and an MIC50 [6] of 0.03 µg/mL (≈ 0.0762 µM). It also gave an MIC50 [7] of 0.06 µg/mL (≈ 0.152 µM), an MIC90 [7] of 0.5 µg/mL (≈ 1.27 µM) and an MIC50 [8] of 0.06 µg/mL (≈ 0.152 µM). The MIC90 [8] was 1 µg/mL (≈ 2.54 µM), the MIC50 [9] was 0.06 µg/mL (≈ 0.152 µM) and the MIC90 [9] was 0.06 µg/mL (≈ 0.152 µM). It also gave an MIC50 [10] of 0.03 µg/mL (≈ 0.0762 µM), an MIC90 [10] of 0.06 µg/mL (≈ 0.152 µM) and an MIC50 [11] of 0.03 µg/mL (≈ 0.0762 µM). For the same compound, the MIC90 [11] was 0.06 µg/mL (≈ 0.152 µM), the MIC50 [12] was 0.03 µg/mL (≈ 0.0762 µM) and the MIC90 [12] was 0.06 µg/mL (≈ 0.152 µM). For the same compound, the MIC50 [13] was 0.5 µg/mL (≈ 1.27 µM), the MIC90 [13] was 0.5 µg/mL (≈ 1.27 µM) and the MIC [14] was 0.03 µg/mL (≈ 0.0762 µM). For the same compound, the MIC50 [14] was 0.03 µg/mL (≈ 0.0762 µM), the MIC90 [14] was 0.06 µg/mL (≈ 0.152 µM) and the MIC50 [15] was 0.06 µg/mL (≈ 0.152 µM). The MIC90 [15] was 0.12 µg/mL (≈ 0.305 µM), the MIC50 [16] was 0.06 µg/mL (≈ 0.152 µM) and the MIC90 [16] was 0.12 µg/mL (≈ 0.305 µM). The MIC50 [17] was 0.06 µg/mL (≈ 0.152 µM), the MIC90 [17] was 0.12 µg/mL (≈ 0.305 µM) and the MIC50 [18] was 0.06 µg/mL (≈ 0.152 µM). It also gave an MIC90 [18] of 0.12 µg/mL (≈ 0.305 µM), an MIC50 [19] of 0.06 µg/mL (≈ 0.152 µM) and an MIC90 [19] of 0.12 µg/mL (≈ 0.305 µM). For the same compound, the MIC50 [20] was 0.5 µg/mL (≈ 1.27 µM), the MIC90 [20] was 16 µg/mL (≈ 40.6 µM) and the MIC50 [21] was 0.25 µg/mL (≈ 0.635 µM). It also gave an MIC90 [21] of 4 µg/mL (≈ 10.2 µM), an MIC50 [22] of 0.06 µg/mL (≈ 0.152 µM) and an MIC90 [22] of 0.25 µg/mL (≈ 0.635 µM). It also gave an MIC50 [23] of 0.25 µg/mL (≈ 0.635 µM), an MIC90 [23] of 8 µg/mL (≈ 20.3 µM) and an MIC50 [24] of 0.015 µg/mL (≈ 0.0381 µM). For the same compound, the MIC90 [24] was 0.03 µg/mL (≈ 0.0762 µM), the MIC50 [25] was 2 µg/mL (≈ 5.08 µM) and the MIC90 [25] was 2 µg/mL (≈ 5.08 µM). For the same compound, the MIC50 [26] was 0.12 µg/mL (≈ 0.305 µM), the MIC90 [26] was 1 µg/mL (≈ 2.54 µM) and the MIC50 [27] was 0.25 µg/mL (≈ 0.635 µM). It also gave an MIC90 [27] of 4 µg/mL (≈ 10.2 µM), an MIC50 [28] of 0.03 µg/mL (≈ 0.0762 µM) and an MIC90 [28] of 0.03 µg/mL (≈ 0.0762 µM). It also gave an MIC50 [29] of 0.03 µg/mL (≈ 0.0762 µM), an MIC90 [29] of 0.03 µg/mL (≈ 0.0762 µM) and an MIC50 [30] of 0.25 µg/mL (≈ 0.635 µM). The MIC90 [30] was 16 µg/mL (≈ 40.6 µM), the MIC50 [31] was 1 µg/mL (≈ 2.54 µM) and the MIC90 [31] was 4 µg/mL (≈ 10.2 µM). It also gave an MIC50 [32] of 16 µg/mL (≈ 40.6 µM), an MIC90 [32] of 64 µg/mL (≈ 163 µM) and an MIC [33] of 0.25 µg/mL (≈ 0.635 µM). For the same compound, the Activity [34] was “inactive”, the Activity [35] was “inactive” and the Activity [36] was “inactive”. For the same compound, the Activity [37] was “inactive”, the Activity [38] was “inactive” and the Activity [39] was “inactive”. For the same compound, the Activity [40] was “inactive”, the Activity [41] was “inactive” and the Activity [42] was “inactive”. For the same compound, the Activity [43] was “inactive”, the Activity [44] was “inactive” and the MIC [45] was 1 µg/mL (≈ 2.54 µM). The MIC90 [46] was “inactive” and the MIC90 [47] was “inactive”.

Reference: ChEMBL document CHEMBL1649565, “Besifloxacin, a novel fluoroquinolone, has broad-spectrum in vitro activity against aerobic and anaerobic bacteria” (Antimicrob Agents Chemother, 2009)
